Reference: patent publication US20250346584A1, “NOVEL KAPPA OPIOID LIGANDS” (The Scripps Research Institute, priority 2012, published 2025)

Each compound was assayed against kappa opioid receptor (OPRK1) (Homo sapiens (Human), UniProt P41145) (assay: OPRK1 antagonist assay (b-arrestin-2-TEV / b-lactamase reporter cell line, EC80 U-50488 challenge)). Conditions: % inhibition at the concentration given.
Format: cell-based

kappa opioid receptor (OPRK1), sequence (P41145 whole entry): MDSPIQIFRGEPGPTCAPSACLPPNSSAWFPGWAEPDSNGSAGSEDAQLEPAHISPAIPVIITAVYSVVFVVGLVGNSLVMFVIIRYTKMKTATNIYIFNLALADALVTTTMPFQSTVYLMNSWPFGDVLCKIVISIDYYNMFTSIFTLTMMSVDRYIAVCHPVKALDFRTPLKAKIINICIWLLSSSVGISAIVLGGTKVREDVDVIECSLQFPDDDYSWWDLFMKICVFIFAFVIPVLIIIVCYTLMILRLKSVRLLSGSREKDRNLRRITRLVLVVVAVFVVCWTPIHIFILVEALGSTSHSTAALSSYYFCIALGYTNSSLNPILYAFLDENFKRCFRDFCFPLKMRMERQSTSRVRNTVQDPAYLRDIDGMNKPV

% inhib if other than 50% [%] | SMILES
65 | CCOC(=O)c1c(Cl)cc(C)nc1N1CCC(N[C@@H]2CCCC[C@H]2O)CC1 [compound 2]
80 | COC(=O)c1cc(Br)cnc1N1CCC(NCCO)CC1 [compound 6]
85 | O=C(O)c1cc(Br)cnc1N1CCC(NC2CCCCC2)CC1 [compound 34]

Same assay, conditions: read-out: IC50 nM (% inhib if other than 50%); antagonist mode vs EC80 U-50488; NA = not active at concentrations up to 10 μM

SMILES | IC50 [nM]
COC(=O)c1cc(Br)cnc1N1CCC(N[C@@H]2CCCC[C@H]2O)CC1 [compound 1] | 231
CCOC(=O)c1c(Cl)cc(C)nc1N1CCC(N[C@@H]2CCCC[C@H]2O)CC1 [compound 2] | 4500
COC(=O)c1cc(Br)cnc1N1CCC(NC2CCCC2O)CC1 (stereo not drawn) [compound 3] | 287
COC(=O)c1cc(Br)cnc1N1CCC(NCCO)CC1 [compound 6] | 9200
COC(=O)c1cc(Br)cnc1N1CCC(NC2CCCCC2)CC1 [compound 7] | 133
CCOC(=O)c1cc(Br)cnc1N1CCC(NC2CCCC[C@@H]2O)CC1 (stereo partly drawn) [compound 8] | 579
COC(=O)c1cc(Br)cnc1N1CCC(NC2CCCC(O)C2)CC1 (stereo not drawn) [compound 10] | 652
COC(=O)c1cc(Br)cnc1N1CCC(NC2C3CC4CC(C3)CC2C4)CC1 (stereo not drawn) [compound 11] | 2800
COC(=O)c1cc(Br)cnc1N1CCC(NC2CCC[C@H]2O)CC1 (stereo partly drawn) [compound 12] | 765
COC(=O)c1cc(Br)cnc1N1CCC(NC2CCOCC2)CC1 [compound 13] | 621
COC(=O)c1cc(Br)cnc1N1CCC(NC2CCCCC2)C1 (stereo not drawn) [compound 14] | 185
COC(=O)c1cc(Br)cnc1N1C2CCC1CC(NC1CCCCC1)C2 (stereo not drawn) [compound 15] | 7700
COC(=O)c1cc(Br)cnc1N1CCC(NC2CCC(C)CC2)CC1 (stereo not drawn) [compound 16] | 536
COC(=O)c1cc(Br)cnc1N1CCC(N[C@H](C)C2CCCCC2)CC1 [compound 17] | 6800
COC(=O)c1cc(Br)cnc1N1CCC(N2CCCCC2)CC1 [compound 18] | 2100
COC(=O)c1cc(Br)cnc1N1CCC(N(C)C2CCCCC2)CC1 [compound 19] | 2700
COC(=O)c1cc(Br)cnc1N1CCC(NC2CCCCCC2)CC1 [compound 20] | 110
COC(=O)c1cc(Br)cnc1N1CCC(NC2CCCCCCC2)CC1 [compound 21] | 317
COC(=O)c1cc(Br)cnc1N1CCC(NC2CC3CCC2(C)C3(C)C)CC1 (stereo not drawn) [compound 22] | 10000
COC(=O)c1cc(Br)cnc1N1CCC(NC2CCCC(C)C2C)CC1 (stereo not drawn) [compound 23] | 854
COC(=O)c1cc(Br)cnc1N1CCC(NC2CCCC2)CC1 [compound 24] | 120
CCOC(=O)c1cccnc1N1CCC(NC2CCCCC2)C1 (stereo not drawn) [compound 25] | 1200
COC(=O)c1cc(Br)cnc1N1CCC(NC2CCCCC2OC)CC1 (stereo not drawn) [compound 26] | 267
COC(=O)c1cc(Br)cnc1N1CCC(N[C@@H]2CCCCC[C@H]2O)CC1 [compound 27] | 473
COC(=O)c1cc(Br)cnc1N1CCC(NC2CC3CCC2C3)CC1 (stereo not drawn) [compound 28] | 387

SMILES | IC50 [nM]
COC(=O)c1cc(Br)cnc1N1CCC(CNC2CCCCC2)CC1 [compound 31] | 3500
COC(=O)c1cc(-c2ccsc2)cnc1N1CCC(NC2CCCCC2)CC1 [compound 32] | 5300
O=C(O)c1cc(Br)cnc1N1CCC(NC2CCCCC2)CC1 [compound 34] | 5200
COC(=O)c1cc(I)cnc1N1CCC(NC2CCCCC2)C1 (stereo not drawn) [compound 35] | 88
COC(=O)c1cc(I)cnc1N1CCC(NC2CCCCC2)CC1 [compound 36] | 79
COC(=O)c1cc(I)cnc1N1CCC(NC2CCCCC2O)CC1 (stereo not drawn) [compound 37] | 142
CCOC(=O)c1cc(Br)cnc1N1CCC(NC2CCCCC2)CC1 [compound 38] | 128
CC(C)OC(=O)c1cc(Br)cnc1N1CCC(NC2CCCCC2)CC1 [compound 39] | 398
COC(=O)c1cc(Cl)cnc1N1CCC(NC2CCCCC2)CC1 [compound 40] | 159
Cc1noc(-c2cc(Br)cnc2N2CCC(NC3CCCCC3)CC2)n1 [compound 41] | 331
COC(=O)c1cc(I)cnc1N1CCC(NC2CCCCC2)C(O)C1 (stereo not drawn) [compound 42] | 18
COC(=O)c1cc(Cl)cnc1N1CCC(NC2CCCCC2)C(O)C1 (stereo not drawn) [compound 43] | 52
COC(=O)c1cc(Br)cnc1N1CCC(NC2CCCC2)C(O)C1 (stereo not drawn) [compound 44] | 79
COC(=O)c1cc(Br)cnc1N1CCC(NC2CCCCC2)C(C)C1 (stereo not drawn) [compound 45] | 164
COC(=O)c1cc(I)cnc1N1CCC(NC2CCCC2)C(O)C1 (stereo not drawn) [compound 46] | 25
COC(=O)c1cc(Br)cnc1N1CCC(O)C(NC2CCCCC2)C1 (stereo not drawn) [compound 47] | 2800
COC(=O)c1cc(Br)cnc1N1CC(O)C(NC2CCCCC2)C1 (stereo not drawn) [compound 48] | 459
COC(=O)c1cc(Br)cnc1N1CC2CN(C3CCCCC3)CC2C1 (stereo not drawn) [compound 49] | 1300
COC(=O)c1cc(Br)cnc1N1CC2CN(C3CCCC3)CC2C1 (stereo not drawn) [compound 50] | 1000
COC(=O)c1cc(Br)cnc1N1CCC(N(C)C2CCCCC2)C(O)C1 (stereo not drawn) [compound 51] | 3000
COC(=O)c1cc(Br)cnc1N1CCC(NC2CCCCC2)C(F)C1 (stereo not drawn) [compound 52] | 3400
COC(=O)c1cccnc1N1CCC(NC2CCCCC2C)C(O)C1 (stereo not drawn) [compound 53] | 5600
COC(=O)c1cccnc1N1CCC(NC2CCCCC2OC)C(O)C1 (stereo not drawn) [compound 54] | 559
COC(=O)c1cccnc1N1CCC(NC2CCCCCC2)C(O)C1 (stereo not drawn) [compound 55] | 1800
COC(=O)c1cccnc1N1CCC(NC2CCOCC2)C(O)C1 (stereo not drawn) [compound 56] | 7000

Further lines, results first:

IC50 [nM] | SMILES
21000 | COC(=O)c1cc(Br)cnc1N1CC2C(C1)C2NC1CCCCC1 (stereo not drawn) [C27]
17000 | COC(=O)c1cc(NC(=O)NC(C)C)cnc1N1CCC(NC2CCCCC2)CC1 [C35]
17000 | COC(=O)c1cnc(N2CCC(NC3CCCCC3)CC2)c([N+](=O)[O-])c1 [C36]
17000 | COC(=O)c1cc(Br)cnc1N1CCC(NC2CCCCC2)C(OC(C)=O)C1 (stereo not drawn) [C49]
> 20000 | COC(=O)c1cc(Br)cnc1N1CCC(OC2CCCC2O)CC1 (stereo not drawn) [C51]
> 20000 | CCOC(=O)c1cc(C#N)c(C)nc1N1CCC(NC2CCCCC2)C(CO)C1 (stereo not drawn) [C52]
13000 | CCOC(=O)c1cc(C#N)c(C)nc1N1CCC(NC2CCCCC2)C(O)C1 (stereo not drawn) [C53]
> 20000 | COC(=O)c1cc(Br)cnc1N1CCC(NC(=O)C2CCCCC2)C(O)C1 (stereo not drawn) [C54]
> 20000 | COC(=O)c1cc(Br)cnc1N1CCC(NC(=O)C2CCCCC2)CC1 [C58]
> 20000 | CCOC(=O)/C=C/c1cnc(N2CCC(NC3CCCCC3)CC2)c(C(=O)OC)c1 [C59]
14000 | CC(=O)c1cc(C)cnc1N1CC[C@@H](NC2CCCCC2)[C@H](O)C1 [C60]
10000 | COC1CN(c2ncc(Br)cc2C(C)=O)CCC1NC1CCCCC1 (stereo not drawn) [C61]
17000 | COC(=O)c1cc(C2CC2)cnc1N1CCC(NC2CCCCC2)C(O)C1 (stereo not drawn) [C66]
37000 | Cc1cnc(N2CC[C@@H](NC3CCCCC3)[C@H](O)C2)c(C#N)c1 [C67]
> 20000 | Cc1cnc(N2CCC(NC3CCCCC3)C(CO)C2)c(C#N)c1 (stereo not drawn) [C68]
30000 | COC1CN(c2ncc(C)cc2C=O)CCC1NC1CCCCC1 (stereo not drawn) [C69]
17000 | COC1CN(c2ncc(C)cc2-c2ncco2)CCC1NC1CCCCC1 (stereo not drawn) [C70]
47000 | Cc1ccc2nc(N3CCC(Nc4ncccn4)CC3)c(-c3nc(C)no3)cc2c1 [C83]
17700 | CCOC(=O)c1noc(-c2cc3cc(C)ccc3nc2N2CCC(NC3CCCCC3)C(CO)C2)n1 (stereo not drawn) [C91]
